US20080021106A1, “CELLULAR UPTAKE OF BIOACTIVE AGENTS” (Aesgen, Inc., priority 1999, published 2008)
Where two headings read alike, the source gives them in different places. Where a SMILES comes first, the peptide text is derived from it. [ ]: non-standard residue; d: D form. Sar = CNCC(=O)O

Legend:
[1] = test system: Caco-2 cell monolayers
Description: (§1) Uptake and permeability of each compound was measured in the apical-to-basolateral direction, with and without vehicle.
(§2) Each compound was tritiated. ^14C-mannitol was used as an evaluation of monolayer/cell integrity (i.e. as a low uptake/permeability marker).
(§3) Uptake and Permeability Assessments. Compound cellular uptake into and permeability across Caco-2 monolayers was measured.
(§4) Monolayer integrity was monitored using ^14C-mannitol permeability. Mannitol uptake was also studied.
(§5) ^14C-mannitol and ^3H-drugs were quantified by liquid scintillation counting. For uptake studies, at designated time points (10 sec, 60 sec, and 5 min), the donor solution was aspirated off. The cell monolayer was washed twice with ice cold HBSS to remove any residual binding and then dissolved in 1 ml of the cell solubilizing agent, Solvable®. The cell lysate (0.5 ml) was added to 5 ml scintillation cocktail (Econosafe®) and counted on liquid scintillation counter (Beckman LS5801, Columbia, Md.). For permeability studies, 0.5 ml of received solution was added to 5 ml scintillation cocktail (Econosafe®) and counted on liquid scintillation counter.
(§6) Permeability (3) in each experiment was calculated (FIG. 8-12) using eq 1: [formula] where P is permeability, dM/dt is rate of drug mass accumulation (i.e., radioactivity) in receiver compartment, A is area, and Cd is donor drug concentration (i.e., radioactivity). […] Permeability is an absolute measure (units of cm/Sec or velocity) and can be determined even though the absolute drug concentrations were not known.

[2] = test system: Caco-2 cell monolayers; remark: listed apart in the source
Description: as §1, §2, §3, §4, §5
(§7) Since saturated solutions of unknown concentration of drugs were used, absolute uptake could not be calculated.

[3] = test system: Caco-2 cell monolayers; test: Caco-2 permeability, apical to basolateral, with and without vehicle; details: no vehicle vs with vehicle, 5 min period (FIG. 8-12)
Description: as §1, §2, §3, §4, §5, §6

[4] = test system: Caco-2 cell monolayers; test: Cellular uptake of tritiated drugs and 14C-mannitol into Caco-2 monolayers, with and without vehicle; details: saturated solutions, AES-14 / blank AES-14 vs HBSS, up to 5 min
Description: as §1, §2, §3, §4, §5, §7

`NC(=O)C[C@H](N)C(=O)O` [L-asparagine] was tested, and the “effect of Aesgen-14 vehicle on Caco-2 permeability (in words)” value (shortened to “effect of Aesgen-14 vehicle”) [1] was “no effect”.
With `NC(=O)CC[C@H](N)C(=O)O` [L-glutamine] the “effect of Aesgen-14 vehicle” value [1] was “no effect” and the “enhancement of cellular uptake by vehicle” value [2] was “To perhaps a lesser extent, vehicle enhanced”.
In the case of `OC[C@@H](O)[C@@H](O)[C@H](O)[C@H](O)CO` [Mannitol, mannitol], the “effect of vehicle on mannitol permeability (in words)” value [1] is reported as “no effect” and the “effect of vehicle on mannitol relative uptake (in words)” value [2] is reported as “no effect”.
With `CN(CC(=O)O)C(=O)CN` [glycylsarcosine] (H-Gly-[Sar]-OH) the “effect of Aesgen-14 vehicle” value [3] was “no effect” and the “enhancement of cellular drug uptake by vehicle (relative uptake vehicle vs HBSS)” value [4] was “about four-fold”.
